What was measured:
Format in all cases: cell-based, Saccharomyces cerevisiae
AH22 strain = assay: Antifungal compound sensitivity test, control yeast AH22 strain (Example 16); settings: 30° C. 24.5 hours, relative value in percentage
Procedure: (§1) The transformed budding yeast AH22-StOS1 prepared in Example 15 was cultured while shaking at 30° C. for 18 hours in a Glu-Leu medium. As a control, the AH22 strain was similarly cultured while shaking at 30° C. for 18 hours in a Glu medium. The absorbance at 600 nm of each grown transformed budding yeast in a cell suspension was measured, and cell suspension diluted with sterilized distilled water to the absorbance of 0.1 was prepared. Further, a cell suspension in which the aforementioned cell suspension of the transformed budding yeast AH22-StOS1 was diluted 50-fold with a Glu-Leu medium, and a cell suspension in which the aforementioned cell suspension of the AH22 strain was diluted 50-fold with a Glu medium were prepared.
(§2) A solution in which each of Compounds (1) to (3) was dissolved in dimethylsulfoxide (DMSO) to the concentration of 6 ppm, a solution in which each of Compounds (4) and (5) was dissolved in dimethylsulfoxide (DMSO) to the concentration of 2000 ppm, and a solution in which Compounds (6) and (7) was dissolved in dimethylsulfoxide (DMSO) to the concentration of 20 ppm were prepared, and two microplates were prepared in which each 1.0 μL per well of the Compound solution and DMSO as a control were dispensed. In one microplate among them, each 100 μL of cell suspensions of the transformed budding yeast AH22-StOS1 which had been prepared by dilution as described above was dispensed, and cultured by allowing to stand at 30° C. for 28 hours. In another microplate, each 100 μL of cell suspensions of the control yeast AH22 strain which had been prepared by dilution as described above was dispensed, and cultured by allowing to stand at 30° C. for 24.5 hours. After culturing, the absorbance at 600 nm of each well was measured with a microplate reader.
(§3) A degree of growth of the transformed budding yeast is expressed as a relative value in percentage, letting the absorbance at 600 nm at the concentration of the Compound of 0 ppm to be 100. It was confirmed that an inhibiting degree of growth of the transformed budding yeast TM182-StOS1 by each test substance was grater than an inhibiting degree of growth of the transformed budding yeast AH22-StOS1 by each test substance, and the transformed budding yeast TM182-StOS1 was a transformed cell with the enhanced sensitivity to an antifungal compound as compared with the transformed budding yeast AH22-StOS1.

[1] = tested on: transformed budding yeast AH22-StOS1; assay: Antifungal compound sensitivity test, transformed budding yeast AH22-StOS1 (Example 16); settings: 30° C. 28 hours, relative value in percentage
Procedure: as §1, §2, §3

[2] = tested on: transformed budding yeast AH22-BcOS1-I365S; assay: Antifungal compound sensitivity test, transformed budding yeast AH22-BcOS1-I365S (Example 6); settings: absorbance at 600 nm relative to 0 ppm = 100
Excerpt: Degrees of growths of both of the transformed budding yeasts cultured under the presence of Compounds (1) to (7) and budding yeast as a control therefor are shown in Table 2. Degrees of growths of both of the transformed budding yeasts and budding yeast as a control are expressed by a relative value in percentage, letting the absorbance at 600 nm at the concentration of the Compound of 0 ppm to be 100. It was confirmed that an inhibiting degree of growth of the transformed budding yeast TM182-BcOS1-I 365S by each test substance was grater than an inhibiting degree of growth of the transformed budding yeast AH22-BcOS1-I 365S by each test substance, and the transformed budding yeast TM182-BcOS1-I365S was a transformed cell with the enhanced sensitivity to an antifungal compound as compared with the transformed budding yeast AH22-BcOS1-I365S.

[3] = tested on: transformed budding yeast TM182-FoOS1; assay: Antifungal compound sensitivity test of transformed budding yeast TM182-FoOS1 (Example 13); settings: for Degree of growth of budding yeast TM182-FoOS1 Gal-Ura-Leu medium: control medium, 30° C. 51 hours; for Degree of growth of budding yeast TM182-FoOS1 Gul-Ura-Leu medium: 30° C. 25 hours
Procedure: Similarly, the transformed budding yeast TM182-FoOS1 prepared in Example 12 was cultured at 30° C. for 18 hours in a Glu-Ura-Leu medium. The absorbance at 600 nm of the grown transformed budding yeast in a cell suspension was measured, and a cell suspension diluted with sterilized distilled water to the absorbance of 0.1 was prepared. Further, a cell suspension in which the transformed budding yeast TM182-FoOS1 was diluted 50-fold with a Glu-Ura-Leu medium and, as a control, a cell suspension in which the yeast was diluted 50-fold with a Gal-Ura-Leu medium were prepared.
A solution in which each of Compounds (1) to (3) was dissolved in dimethylsulfoxide (DMSO) to the concentration of 600 ppm, a solution in which each of Compounds […] and (5) was dissolved in dimethylsulfoxide (DMSO) to the concentration of 2000 ppm, and a solution in which each of Compounds (6) and (7) was dissolved in dimethylsulfoxide (DMSO) to the concentration of 20 ppm were prepared, and two microplates were prepared in which each 2.0 μL per well of the Compound-DMSO solution and DMSO as a control were dispensed into 2 wells. In one microplate among them, each 100 μL of cell suspensions of the transformed budding yeast TM182-FoOS1 which had been prepared by dilution with a Glu-Ura-Leu medium as described above was dispensed, and cultured by allowing to stand at 30° C. for 25 hours. In another microplate, as described above, as a control, each 100 μL of cell suspensions of the transformed budding yeast TM182-FoOS1 which had been prepared by dilution with a Gal-Ura-Leu medium was dispensed, and cultured at 30° C. for 51 hours. After culturing, the absorbance at 600 nm of each well was measured with a microplate reader.
as §3, with “TM182-FoOS1” for “TM182-StOS1”, “AH22-FoOS1” for “AH22-StOS1”, “AH22-FoOS1.” for “AH22-StOS1.”

N#Cc1c[nH]cc1-c1cccc2c1OC(F)(F)O2 [Compound (6), Fludioxonil]
Degree of growth of budding yeast AH22 Glu medium (AH22 strain; final concentration 0.2 ppm): 92%
Degree of growth of budding yeast AH22-StOS1 Glu-Leu medium ([1]; final concentration 0.2 ppm): 93%
Degree of growth of budding yeast (%) AH22-BcOS1-I365S Glu-Leu medium ([2]; final concentration 0.2 ppm): 67%
Degree of growth of budding yeast TM182-FoOS1 Gal-Ura-Leu medium ([3]; final concentration 0.2 ppm): 99%
Degree of growth of budding yeast TM182-FoOS1 Gul-Ura-Leu medium ([3]; final concentration 0.2 ppm): 7%

N#Cc1c[nH]cc1-c1cccc(Cl)c1Cl [Compound (7), Fenpiclonil]
Degree of growth of budding yeast AH22 Glu medium (AH22 strain; final concentration 0.2 ppm): 91%
Degree of growth of budding yeast AH22-StOS1 Glu-Leu medium ([1]; final concentration 0.2 ppm): 91%
Degree of growth of budding yeast (%) AH22-BcOS1-I365S Glu-Leu medium ([2]; final concentration 0.2 ppm): 79%
Degree of growth of budding yeast TM182-FoOS1 Gal-Ura-Leu medium ([3]; final concentration 0.2 ppm): 89%
Degree of growth of budding yeast TM182-FoOS1 Gul-Ura-Leu medium ([3]; final concentration 0.2 ppm): 21%

O=[N+]([O-])c1c(Cl)c(Cl)c(Cl)c(Cl)c1Cl [Compound (4), Quintozene]
Degree of growth of budding yeast AH22 Glu medium (AH22 strain; final concentration 20 ppm): 96%
Degree of growth of budding yeast AH22-StOS1 Glu-Leu medium ([1]; final concentration 20 ppm): 91%
Degree of growth of budding yeast (%) AH22-BcOS1-I365S Glu-Leu medium ([2]; final concentration 20 ppm): 83%
Degree of growth of budding yeast TM182-FoOS1 Gal-Ura-Leu medium ([3]; final concentration 20 ppm): 104%
Degree of growth of budding yeast TM182-FoOS1 Gul-Ura-Leu medium ([3]; final concentration 20 ppm): 20%

COP(=S)(OC)Oc1c(Cl)cc(C)cc1Cl [Compound (5), Tolclofos-methyl]
Degree of growth of budding yeast AH22 Glu medium (AH22 strain; final concentration 20 ppm): 80%
Degree of growth of budding yeast AH22-StOS1 Glu-Leu medium ([1]; final concentration 20 ppm): 76%
Degree of growth of budding yeast (%) AH22-BcOS1-I365S Glu-Leu medium ([2]; final concentration 20 ppm): 64%
Degree of growth of budding yeast TM182-FoOS1 Gal-Ura-Leu medium ([3]; final concentration 20 ppm): 80%
Degree of growth of budding yeast TM182-FoOS1 Gul-Ura-Leu medium ([3]; final concentration 20 ppm): 57%

CC12CC1(C)C(=O)N(c1cc(Cl)cc(Cl)c1)C2=O (centres unmarked) [Compound (1), Procymidone]
Degree of growth of budding yeast AH22 Glu medium (AH22 strain; final concentration 0.6 ppm): 99%
Degree of growth of budding yeast AH22-StOS1 Glu-Leu medium ([1]; final concentration 0.6 ppm): 101%
Degree of growth of budding yeast (%) AH22-BcOS1-I365S Glu-Leu medium ([2]; final concentration 6 ppm): 68%
Degree of growth of budding yeast TM182-FoOS1 Gal-Ura-Leu medium ([3]; final concentration 6 ppm): 116%
Degree of growth of budding yeast TM182-FoOS1 Gul-Ura-Leu medium ([3]; final concentration 6 ppm): 26%

CC(C)NC(=O)N1CC(=O)N(c2cc(Cl)cc(Cl)c2)C1=O [Compound (2), Iprodione]
Degree of growth of budding yeast AH22 Glu medium (AH22 strain; final concentration 0.6 ppm): 94%
Degree of growth of budding yeast AH22-StOS1 Glu-Leu medium ([1]; final concentration 0.6 ppm): 100%
Degree of growth of budding yeast (%) AH22-BcOS1-I365S Glu-Leu medium ([2]; final concentration 6 ppm): 81%
Degree of growth of budding yeast TM182-FoOS1 Gal-Ura-Leu medium ([3]; final concentration 6 ppm): 87%
Degree of growth of budding yeast TM182-FoOS1 Gul-Ura-Leu medium ([3]; final concentration 6 ppm): 55%

C=CC1(C)OC(=O)N(c2cc(Cl)cc(Cl)c2)C1=O (centres unmarked) [Compound (3), Vinclozolin]
Degree of growth of budding yeast AH22 Glu medium (AH22 strain; final concentration 0.6 ppm): 96%
Degree of growth of budding yeast AH22-StOS1 Glu-Leu medium ([1]; final concentration 0.6 ppm): 98%
Degree of growth of budding yeast (%) AH22-BcOS1-I365S Glu-Leu medium ([2]; final concentration 6 ppm): 75%
Degree of growth of budding yeast TM182-FoOS1 Gal-Ura-Leu medium ([3]; final concentration 6 ppm): 99%
Degree of growth of budding yeast TM182-FoOS1 Gul-Ura-Leu medium ([3]; final concentration 6 ppm): 22%

Source: patent US7452688B2, “Transformed cell with enhanced sensitivity to antifungal compound and use thereof” (Sumitomo Chemical Company, Limited, priority 2002, dated 2008)
